The record followed here is patent publication US9604964B2, “Dihydropyrazole GPR40 modulators” (BRISTOL-MYERS SQUIBB COMPANY, priority 2012, dated 2017).

The experiment deals with human GPR40 (Homo sapiens, UniProt O14842). Briefly: FDSS-based intracellular calcium assay (Human GPR40 in vitro assay). Particulars: intracellular Ca2+ response, cells expressing GPR40; read-out: hGPR40 EC50. Type of experiment: cell-based. Also on record: 3xFLAG; expressed in transfected cells. The protocol:
FDSS-based Intracellular Calcium Assay
Compounds are dissolved in DMSO and diluted to desired concentrations with assay buffer and added to the cells as 3× solution (20 μL per well). Run fluorescence/luminescence reader FDSS (Hamamatsu) to read intracellular Ca^2+ response.
(Calcium assays in cells follow changes in intracellular calcium, usually with a dye or a luminescent sensor.)

What is called EC50 is the concentration needed to bring the measured effect to its halfway point.

human GPR40, sequence (O14842 whole entry): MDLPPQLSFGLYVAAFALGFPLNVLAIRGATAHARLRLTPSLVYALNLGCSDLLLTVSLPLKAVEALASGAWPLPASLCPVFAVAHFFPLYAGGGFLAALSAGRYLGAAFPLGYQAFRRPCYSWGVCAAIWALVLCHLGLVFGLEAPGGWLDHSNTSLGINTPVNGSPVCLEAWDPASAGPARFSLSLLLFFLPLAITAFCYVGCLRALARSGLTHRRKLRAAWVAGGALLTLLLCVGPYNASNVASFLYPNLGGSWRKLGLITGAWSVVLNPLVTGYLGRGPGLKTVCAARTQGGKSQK

For the molecule `COc1ccc(F)c(N2CCCC(Oc3ccc(N4N=C(C(F)(F)F)[C@@H](C)[C@@H]4CC(=O)O)cc3)C2)c1` (mixture of isomers) [Example B26, 2-((4S,5S)-1-(4-((1-(2-fluoro-5-methoxyphenyl)piperidin-3-yl)oxy)phenyl)-4-methyl-3-(trifluoromethyl)-4,5-dihydro-1H-pyrazol-5-yl)acetic acid], the concentration for a half-maximal effect (EC50) is 4230 nM. In the case of `CCOc1ccc(F)c(N2CCC(Cc3ccc(N4N=C(C(F)(F)F)[C@@H](C)[C@@H]4CC(=O)O)cc3)C(C)C2)c1` (single isomer, unassigned) [Example 3 (Isomer 1)], the EC50 was found to be 3220 nM. Regarding `CCOc1ccc(F)c(N2CCC(Cc3ccc(N4N=C(C(F)(F)F)[C@@H](C)[C@@H]4CC(=O)O)cc3)C(C)C2)c1` (single isomer, unassigned) [Example 3 (Isomer 2)], the concentration giving a half-maximal response (EC50) worked out at 471 nM. As for `CCOc1ccc(F)c(N2CCC(Cc3ccc(N4N=C(C(F)(F)F)[C@@H](C)[C@@H]4CC(=O)O)cc3)C(C)C2)c1` (single isomer, unassigned) [Example 3 (Isomer 3)], the EC50 turned out to be 1140 nM. On to `CCOc1ccc(F)c(N2CCC(Cc3ccc(N4N=C(C(F)(F)F)[C@@H](C)[C@@H]4CC(=O)O)cc3)C(C)C2)c1` (single isomer, unassigned) [Example 3 (Isomer 4)], for which the EC50 is 672 nM. Turning to `CCOc1ccc(F)c(N2CCC(Oc3ccc(N4N=C(C(F)(F)F)[C@@H](C)[C@@H]4CC(=O)O)cc3)C(Cc3ccccc3)C2)c1` (single isomer, unassigned) [Example 28 (Isomer 1)], the EC50 came out at 132 nM. Consider `CCOc1ccc(F)c(N2CCC(Oc3ccc(N4N=C(C(F)(F)F)[C@@H](C)[C@@H]4CC(=O)O)cc3)C(OC)C2)c1` (single isomer, unassigned) [Example 31 (Isomer 2)], for which the EC50 amounted to 910 nM. `COc1cc(N2CCC(Oc3ccc(N4N=C(C(F)(F)F)[C@@H](C)[C@@H]4CC(=O)O)cn3)C(C)C2)c(Cl)cn1` (single isomer, unassigned) [Example 103 Isomer 1]: the half-maximal effective concentration (EC50) came out at 533 nM.

Consider `COCC1CN(c2cc(OC)ncc2Cl)CCC1Oc1ccc(N2N=C(C(F)(F)F)[C@@H](C)[C@@H]2CC(=O)O)cc1` (single isomer, unassigned) [Example B3, Isomer 1], for which the EC50 came out at 352 nM. Turning to `COCC1CN(c2cc(OC)ncc2Cl)CCC1Oc1ccc(N2N=C(C(F)(F)F)[C@@H](C)[C@@H]2CC(=O)O)cc1` (single isomer, unassigned) [Example B3, Isomer 2], the half-maximal effective concentration (EC50) is 768 nM.

`COCC1CN(c2cc(OC)ncc2Cl)CCC1Oc1ccc(N2N=C(C(F)(F)F)[C@@H](C)[C@@H]2CC(=O)O)cc1` (single isomer, unassigned) [Example B3, Isomer 3]: the EC50 stood at 2000 nM. As for `CCOc1ccc(F)c(N2CCC(Oc3ccc(N4N=C(C#N)C(C)C4CC(=O)O)cc3)CC2)c1` (single isomer, unassigned) [Example B5 Isomer 1, 2-(3-cyano-1-(4-((1-(5-ethoxy-2-fluorophenyl)piperidin-4-yl)oxy)phenyl)-4-methyl-4,5-dihydro-1H-pyrazol-5-yl)acetic acid], the EC50 was 389 nM.

Take `CCOc1ccc(F)c(N2CCC(Oc3ccc(N4N=C(C#N)C(C)C4CC(=O)O)cc3)CC2)c1` (single isomer, unassigned) [Example B5, Isomer 2, 2-(3-cyano-1-(4-((1-(5-ethoxy-2-fluorophenyl)piperidin-4-yl)oxy)phenyl)-4-methyl-4,5-dihydro-1H-pyrazol-5-yl)acetic acid]: the EC50 worked out at 4950 nM. On to `COc1cc(N2CCC(Oc3ccc(N4N=C(C#N)C(C)C4CC(=O)O)cc3)C(C)C2)c(Cl)cn1` (single isomer, unassigned) [Example B6, Isomer 1, 2-(1-(4-((1-(5-chloro-2-methoxypyridin-4-yl)-3-methylpiperidin-4-yl)oxy)phenyl)-3-cyano-4-methyl-4,5-dihydro-1H-pyrazol-5-yl)acetic acid], for which the EC50 is 303 nM.

For the molecule `COc1cc(N2CCC(Oc3ccc(N4N=C(C#N)C(C)C4CC(=O)O)cc3)C(C)C2)c(Cl)cn1` (single isomer, unassigned) [Example B6, Isomer 2, 2-(1-(4-((1-(5-chloro-2-methoxypyridin-4-yl)-3-methylpiperidin-4-yl)oxy)phenyl)-3-cyano-4-methyl-4,5-dihydro-1H-pyrazol-5-yl)acetic acid], the 50% effective concentration (EC50) was 4850 nM.

Regarding `CCOc1ccc(F)c(N2CCC(Oc3ccc(N4N=C(C#N)C(C)C4CC(=O)O)cc3)C(C)C2)c1` (single isomer, unassigned) [Example B7, Isomer 1, 2-(3-Cyano-1-(4-((1-(5-ethoxy-2-fluorophenyl)-3-methylpiperidin-4-yl)oxy)phenyl)-4-methyl-4,5-dihydro-1H-pyrazol-5-yl)acetic acid], the 50% effective concentration (EC50) stood at 394 nM. The same measure for `CCOc1ccc(F)c(N2CCC(Oc3ccc(N4N=C(C#N)C(C)C4CC(=O)O)cc3)C(C)C2)c1` (single isomer, unassigned) [Example B7, Isomer 2, 2-(3-Cyano-1-(4-((1-(5-ethoxy-2-fluorophenyl)-3-methylpiperidin-4-yl)oxy)phenyl)-4-methyl-4,5-dihydro-1H-pyrazol-5-yl)acetic acid]: 5790 nM; for `COc1ccc(F)c(N2C3CCC2CC(Oc2ccc(N4N=C(C(F)(F)F)[C@@H](C)[C@@H]4CC(=O)O)cc2)C3)c1` (stereo partly drawn) [Example 2, 2-((4S,5S)-1-(4-((8-(2-fluoro-5-methoxyphenyl)-8-azabicyclo[3.2.1]octan-3-yl)oxy)phenyl)-4-methyl-3-(trifluoromethyl)-4,5-dihydro-1H-pyrazol-5-yl)acetic acid]: 644 nM; for `C[C@@H]1C(C(F)(F)F)=NN(c2ccc(OC3CCN(c4cc5c(cc4Cl)CCO5)CC3)cc2)[C@H]1CC(=O)O` [Example 4, 2-((4S,5S)-1-(4-((1-(5-chloro-2,3-dihydrobenzofuran-6-yl)piperidin-4-yl)oxy)phenyl)-4-methyl-3-(trifluoromethyl)-4,5-dihydro-1H-pyrazol-5-yl)acetic acid]: 1040 nM. `CCCc1cnc(N2CCC(Oc3ccc(N4N=C(C(F)(F)F)[C@@H](C)[C@@H]4CC(=O)O)cc3)CC2)nc1` [Example 5, 2-((4S,5S)-4-methyl-1-(4-((1-(5-propylpyrimidin-2-yl)piperidin-4-yl)oxy)phenyl)-3-(trifluoromethyl)-4,5-dihydro-1H-pyrazol-5-yl)acetic acid]: the EC50 was 5810 nM. As for `C[C@@H]1C(C(F)(F)F)=NN(c2ccc(OC3CCN(c4ccc(C(F)(F)F)cn4)CC3)cc2)[C@H]1CC(=O)O` [Example 6, 2-((4S,5S)-4-methyl-3-(trifluoromethyl)-1-(4-((1-(5-(trifluoromethyl)pyridin-2-yl)piperidin-4-yl)oxy)phenyl)-4,5-dihydro-1H-pyrazol-5-yl)acetic acid], the EC50 was found to be 7520 nM. Regarding `C[C@@H]1C(C(F)(F)F)=NN(c2ccc(OC3CCN(c4ncc(Cl)cn4)CC3)cc2)[C@H]1CC(=O)O` [Example 7, 2-((4S,5S)-1-(4-((1-(5-chloropyrimidin-2-yl)piperidin-4-yl)oxy)phenyl)-4-methyl-3-(trifluoromethyl)-4,5-dihydro-1H-pyrazol-5-yl)acetic acid], the EC50 worked out at 4480 nM. With `CC1CN(c2cc(OCC(F)(F)F)ccc2F)CCC1Oc1ccc(N2N=C(C(F)(F)F)[C@@H](C)[C@@H]2CC(=O)O)cc1` (stereo partly drawn) [Example 11, 2-((4S,5S)-1-(4-((1-(2-fluoro-5-(2,2,2-trifluoroethoxy)phenyl)-3-methylpiperidin-4-yl)oxy)phenyl)-4-methyl-3-(trifluoromethyl)-4,5-dihydro-1H-pyrazol-5-yl)acetic acid] the figure was 1080 nM. With `C[C@@H]1C(C(F)(F)F)=NN(c2ccc(OC3CCN(c4nccs4)CC3)cc2)[C@H]1CC(=O)O` [Example 13, 2-((4S,5S)-4-methyl-1-(4-((1-(thiazol-2-yl)piperidin-4-yl)oxy)phenyl)-3-(trifluoromethyl)-4,5-dihydro-1H-pyrazol-5-yl)acetic acid] the figure was 1690 nM; with `C[C@@H]1C(C(F)(F)F)=NN(c2ccc(OC3CCN(C(=O)OCc4ccccc4)CC3)cc2)[C@H]1CC(=O)O` [Example 14, 2-((4S,5S)-1-(4-((1-((benzyloxy)carbonyl)piperidin-4-yl)oxy)phenyl)-4-methyl-3-(trifluoromethyl)-4,5-dihydro-1H-pyrazol-5-yl)acetic acid], 4270 nM.

For `C[C@@H]1C(C(F)(F)F)=NN(c2ccc(OC3CCN(C(=O)OC(C)(C)C)CC3)cc2)[C@H]1CC(=O)O` [Example 15, 2-((4S,5S)-1-(4-((1-(tert-butoxycarbonyl)piperidin-4-yl)oxy)phenyl)-4-methyl-3-(trifluoromethyl)-4,5-dihydro-1H-pyrazol-5-yl)acetic acid], the EC50 was found to be 1720 nM. The same measure for `C[C@@H]1C(C(F)(F)F)=NN(c2ccc(OC3CCN(c4cc(OC5CCCC5)cc(F)c4F)CC3)cc2)[C@H]1CC(=O)O` [Example 19, 2-((4S,5S)-1-(4-((1-(5-(cyclopentyloxy)-2,3-difluorophenyl)piperidin-4-yl)oxy)phenyl)-4-methyl-3-(trifluoromethyl)-4,5-dihydro-1H-pyrazol-5-yl)acetic acid]: 4820 nM. Take `C[C@@H]1C(C(F)(F)F)=NN(c2ccc(OC3CCN(c4nccc(C(F)(F)F)n4)CC3)cc2)[C@H]1CC(=O)O` [Example 20, 2-((4S,5S)-4-methyl-3-(trifluoromethyl)-1-(4-((1-(4-(trifluoromethyl)pyrimidin-2-yl)piperidin-4-yl)oxy)phenyl)-4,5-dihydro-1H-pyrazol-5-yl)acetic acid]: the 50% effective concentration (EC50) is 1420 nM. As to `COc1ccc(F)c(N2CCCC(Oc3ccc(N4N=C(C(F)(F)F)[C@@H](C)[C@@H]4CC(=O)O)cc3)CC2)c1` (stereo partly drawn) [Example 23, 2-((4S,5S)-1-(4-((1-(2-fluoro-5-methoxyphenyl)azepan-4-yl)oxy)phenyl)-4-methyl-3-(trifluoromethyl)-4,5-dihydro-1H-pyrazol-5-yl)acetic acid], the EC50 was found to be 3020 nM.
